According to patent publication US5532236A, “[1,2,4]triazolo[4,3-a]quinoxaline compounds” (priority 1993, dated 1996):

What was measured:
[1] = test system: NMDA (N-methyl-D-aspartate) receptors; conditions: cited from earlier work
[2] = test system: AMPA receptors; conditions: cited from earlier work
[3] = test system: kainate receptors; conditions: cited from earlier work
[4] = biological target: AMPA type receptors; assay: 3H-AMPA binding (Test 1); conditions: rat cerebral cortical membrane homogenate; 5 nM 3H-AMPA; pH 7.1; 0° C., 30 min; read-out: TEST 1 IC50 (displacement of 50% of the specific binding of 3H-AMPA)
Description: AMPA receptor binding may be studied by using ^3 H-AMPA as radioligand.
The pharmacological properties of the compounds of the present invention can be illustrated by determining their capability for displacing radioactively labelled 2-amino-3-hydroxy-5-methyl-4-isoxazolepropionic acid (AMPA) from the AMPA type receptors.
The displacement activity of the compounds may be shown by determining the IC50 value which represents the concentration (μM) which causes a displacement of 50% of the specific binding of ^3 H-AMPA.
^3 H-AMPA binding (Test 1)
500 μl of thawed rat cerebral cortical membrane homogenate in Tris-HCl (30 mM), CaCl2 (2.5 mM) and KSCN (100 mM) pH 7.1 were incubated at 0° C. for 30 min. with 25 μl ^3 H-AMPA (5 nM final concentration) and the test compound and buffer. Nonspecific binding was determined by incubation with L-glutamic acid (600 μM final concentration). The binding reaction was terminated by adding 5 ml of ice-cold buffer followed by filtration through Whatman GF/C glass fibre filters and 2×5 ml wash with ice-cold buffer. Bound radioactivity was measured by scintillation counting. IC50 was determined by Hill analysis of at least four concentrations of test compound.

[5] = test system: quisqualic acid stimulated spreading depression in chicken retina; assay: Spreading depression (Test 2): antagonism of quisqualic acid stimulated spreading depression in chicken retina; type: cell-based; conditions: Gallus gallus, 0.25 h, quisqualate 1 μg/ml, 26° C., 15 min incubation with test compound, read-out: TEST 2 IC50 (50% maximal inhibition of quisqualic acid stimulated spreading depression)
Description: The influence of glutamic acid analogues on secondary effects of glutamate receptor interactions may be studied in vitro by using the phenomenon of spreading depression in chicken retina. Such experiments will provide information as to the efficacies (agonist/antagonist) of the test substances. This is in contrast to binding studies, which only provide information on the affinities of the compounds for the receptor.
The pharmacological properties of the compounds of the present invention can be illustrated by determining their capability for displacing radioactively labelled 2-amino-3-hydroxy-5-methyl-4-isoxazolepropionic acid (AMPA) from the AMPA type receptors. […]
The eyes were initially incubated in normal P.S.S. for 15-30 min. and then transferred to P.S.S. containing quisqualate (1 μg/ml). […] The time taken for an S.D. to start in each eye was measured.
After a further 15 min. of incubation in normal P.S.S. the eyes were transferred to normal P.S.S. containing the test compound and incubated for 15 min. […] The time taken for an S.D. to start in each eye was measured again. The eyes were then placed back in normal P.S.S. and after 15 min. the time taken for S.D. to start was measured again, in order to assess the degree of recovery from any drug effects. […]

For `O=C(O)[C@@H]1CCCN[C@H]1C(=O)O` (relative stereo) [trans-2,3-PDA, trans-2,3-piperidine dicarboxylic acid], the “agonist activity on NMDA receptors” value [1] is given as “strong to moderate agonist activity”.

In the case of `N[C@H](C(=O)O)c1cc(=O)[nH]o1` [Ibotenic acid], the “agonist activity on NMDA receptors” value [1] is given as “strong to moderate agonist activity”.

For `N[C@@H](CCC(=O)O)C(=O)O` [L-glutamic acid], the “agonist activity at AMPA receptors” value [2] is given as “potent agonists”.

In the case of `CCOC(=O)CC[C@H](N)C(=O)OCC` [GDEE, Glutamic acid diethyl ester], the “sensitivity of excitatory responses to kainic acid to antagonism” value [3] is given as “relatively insensitive” and the “antagonist activity at AMPA receptors” value [2] is given as “selective but very weak antagonist”.

For `O=c1[nH]c2cc(-n3ccnc3)c(C(F)(F)F)cc2n2c(=O)[nH]nc12` [Example 2, 7-(1H-Imidazol-1-yl)-8-trifluoromethyl[1,2,4]triazolo[4,3-a]quinoxaline-1,4(2H,5H)-dione], the IC50 [4] was 1700 nM and the IC50 [5] was 4800 nM.

In the case of `N[C@@H](Cn1oc(=O)[nH]c1=O)C(=O)O` [quisqualic acid], the “agonist activity at AMPA receptors” value [2] is listed as “potent agonists”.

For `N[C@@H](CCC(=O)NCC(=O)O)C(=O)O` [3-glutamyl-glycine], the “antagonism / selectivity at kainate receptors” value ([3]; O. Goldberg et al. 1981) is listed as “some selectivity for kainate receptors”.

In the case of `N[C@H](CCCP(=O)(O)O)C(=O)O` [D-APV, 2-amino-5-phosphono-valeric acid], the “antagonist activity at NMDA receptors” value [1] is listed as “most potent and selective antagonists”.

Compound `O=c1[nH]c2cc(-n3ccnc3)ccc2n2c(=O)[nH]nc12` [Example 1, 7-(1H-Imidazol-1-yl)[1,2,4]triazolo[4,3-a]quinoxaline-1,4(2H,5H)-dione] has an IC50 [4] of 180 nM and an IC50 [5] of 3900 nM.

In the case of `Cc1onc(O)c1CC(N)C(=O)O` (stereo not drawn) [AMPA, 2-amino-3-hydroxy-5-methyl-4-isoxazolepropionic acid], the “agonist activity at AMPA receptors” value [2] is listed as “activated selectively”.

In the case of `O=C(O)C1CN(CCCP(=O)(O)O)CCN1` (racemic) [CPP, 3-[(±)-2-carboxy-piperazin-4-yl]-propyl-1-phosphonic acid], the “antagonist activity at NMDA receptors” value [1] is given as “most potent and selective antagonists”.

In the case of `N[C@H](CCC[C@H](N)C(=O)O)C(=O)O` [diaminopimelic acid], the “antagonist activity at NMDA receptors” value [1] is given as “moderate antagonist activity”.

In the case of `N[C@H](CCCC(=O)O)C(=O)O` [D-2-amino-adipic acid], the “antagonist activity at NMDA receptors” value [1] is listed as “moderate antagonist activity”.

For `N[C@H](CCC(=O)O)C(=O)O` [D-glutamic acid], the “agonist activity on NMDA receptors” value [1] is given as “strong to moderate agonist activity”.

In the case of `N[C@@H](CCS(=O)(=O)O)C(=O)O` [L-homocysteic acid], the “agonist activity on NMDA receptors” value [1] is given as “strong to moderate agonist activity”.
